Measurements published in US8785470B2, “Heterocyclic compounds and uses thereof” (Infinity Pharmaceuticals, Inc., priority 2011, dated 2014).

Experiments:
PI3Kβ = molecular target: T1, PI3Kβ (Homo sapiens, UniProt P42338); test: PI3-Kinase HTRF assay, PI3Kβ; type: biochemical; settings: bins Greater than 10 μM and Greater than 1 μM to 10 μM; 10 μM ATP, PIP2 at 10 μM
T1 construct: purchased Millipore Corporation 14-603-K
Description: (§1) A PI3-Kinase HTRF® assay kit (cat No. 33-016) purchased from Millipore Corporation was used to screen compounds provided herein. This assay used specific, high affinity binding of the GRPI pleckstrin homology (PH) domain to PIP3, the product of a Class 1A or 1B PI3 Kinase acting on its physiological substrate PIP2. During the detection phase of the assay, a complex was generated between the GST-tagged PH domain and biotinylated short chain PIP3. The biotinylated PIP3 and the GST-tagged PH domain recruited fluorophores (Streptavidin-Allophycocyanin and Europium-labeled anti-GST respectively) to form the fluorescence resonance energy transfer (FRET) architecture, generating a stable time-resolved FRET signal. The FRET complex was disrupted in a competitive manner by non-biotinylated PIP3, a product formed in the PI3 Kinase assay.
(§2) PI3 Kinase α, β, γ and δ activity was assayed using the PI3 Kinase HTRF® assay kit (catalogue No. 33-016) purchased from Millipore Corporation. Purified recombinant PI3Kα (catalogue No. 14-602-K), PI3Kβ (catalogue No. 14-603-K), PI3Kγ (catalogue No. 14-558-K) and PI3Kδ (catalogue No. 14-604-K) were obtained from Millipore Corporation. Purified recombinant PI3K enzyme was used to catalyze the phosphorylation of phosphatidylinositol 4,5-bisphosphate (PIP2 at 10 μM) to phosphatidylinositol 3,4,5-trisphosphate (PIP3) in the presence of 10 μM ATP. The assay was carried out in 384-well format and detected using a Perkin Elmer EnVision Xcite Multilabel Reader. Emission ratios were converted into percent inhibitions and imported into GraphPad Prism software. The concentration necessary to achieve inhibition of enzyme activity by 50% (IC50) was calculated using concentrations ranging from 20 μM to 0.1 nM (12-point curve). IC50 values were determined using a nonlinear regression model available in GraphPad Prism 5. […]

Balb/c splenic B cells = test: B cell activation and proliferation assay; type: cell-based; settings: Mus musculus, column bins 1 μM to 100 nM (given as 100-1000) and Less than 100 nM, read-out: B cell proliferation EC50
Description: The ability of one or more subject compounds to inhibit B cell activation and proliferation is determined according to standard procedures known in the art. For example, an in vitro cellular proliferation assay is established that measures the metabolic activity of live cells. The assay is performed in a 96 well microtiter plate using Alamar Blue reduction. Balb/c splenic B cells are purified over a Ficoll-Paque™ PLUS gradient followed by magnetic cell separation using a MACS B cell Isolation Kit (Miletenyi). Cells are plated in 90 μl at 50.000 cells/well in B Cell Media (RPMI+10% FBS+Penn/Strep+50 μME5 mM HEPES). A compound provided herein is diluted in B Cell Media and added in a 10 μl volume. Plates are incubated for 30 min at 37° C. and 5% CO2 (0.2% DMSO final concentration). A 50 μl B cell stimulation cocktail is then added containing either 10 μg/ml LPS or 5 μg/ml F(ab′)2 Donkey anti-mouse IgM plus 2 ng/ml recombinant mouse IL4 in B Cell Media. Plates are incubated for 72 hours at 37° C. and 5% CO2. A volume of 15 μL of Alamar Blue reagent is added to each well and plates are incubated for 5 hours at 37° C. and 5% CO2. Alamar Blue fluoresce is read at 560Ex/590Em, and IC50 or EC50 values are calculated using GraphPad Prism 5.

PI3Kα = molecular target: T2, PI3Kα (Homo sapiens, UniProt P42336); test: PI3-Kinase HTRF assay, PI3Kα; type: biochemical; settings: bins Greater than 10 μM and Greater than 1 μM to 10 μM; 10 μM ATP, PIP2 at 10 μM; read-out: IC50 P13Kα
T2 construct: purchased Millipore Corporation 14-602-K
Description: as §1, §2

T2 sequence (P42336 whole entry): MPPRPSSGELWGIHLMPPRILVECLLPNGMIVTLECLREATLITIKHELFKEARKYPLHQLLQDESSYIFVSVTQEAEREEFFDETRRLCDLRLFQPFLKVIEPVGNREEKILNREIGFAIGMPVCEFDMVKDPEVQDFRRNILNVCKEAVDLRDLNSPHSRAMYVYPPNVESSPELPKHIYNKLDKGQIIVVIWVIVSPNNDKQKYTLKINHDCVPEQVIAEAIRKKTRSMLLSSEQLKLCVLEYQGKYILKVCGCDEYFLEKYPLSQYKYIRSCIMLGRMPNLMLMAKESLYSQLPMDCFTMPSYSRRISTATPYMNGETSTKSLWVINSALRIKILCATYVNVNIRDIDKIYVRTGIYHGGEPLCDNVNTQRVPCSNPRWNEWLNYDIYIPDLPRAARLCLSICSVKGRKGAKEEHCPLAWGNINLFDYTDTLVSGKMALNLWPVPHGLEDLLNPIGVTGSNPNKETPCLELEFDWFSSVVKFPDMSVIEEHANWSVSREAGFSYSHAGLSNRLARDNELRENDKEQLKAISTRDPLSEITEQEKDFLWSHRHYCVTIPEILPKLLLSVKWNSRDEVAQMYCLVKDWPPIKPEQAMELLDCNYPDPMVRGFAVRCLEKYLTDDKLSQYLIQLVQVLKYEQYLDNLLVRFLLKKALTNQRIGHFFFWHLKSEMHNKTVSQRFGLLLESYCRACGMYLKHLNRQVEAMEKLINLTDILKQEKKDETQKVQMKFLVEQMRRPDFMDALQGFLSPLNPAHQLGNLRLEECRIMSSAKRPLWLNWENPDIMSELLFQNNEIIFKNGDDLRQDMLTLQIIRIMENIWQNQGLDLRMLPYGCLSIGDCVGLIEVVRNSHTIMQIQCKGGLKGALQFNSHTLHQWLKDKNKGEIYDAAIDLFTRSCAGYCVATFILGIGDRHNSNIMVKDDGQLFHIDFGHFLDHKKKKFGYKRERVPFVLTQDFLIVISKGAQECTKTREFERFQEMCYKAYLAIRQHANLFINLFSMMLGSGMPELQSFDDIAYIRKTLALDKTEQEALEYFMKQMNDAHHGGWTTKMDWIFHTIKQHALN
T2 sequence (P27986 whole entry partner): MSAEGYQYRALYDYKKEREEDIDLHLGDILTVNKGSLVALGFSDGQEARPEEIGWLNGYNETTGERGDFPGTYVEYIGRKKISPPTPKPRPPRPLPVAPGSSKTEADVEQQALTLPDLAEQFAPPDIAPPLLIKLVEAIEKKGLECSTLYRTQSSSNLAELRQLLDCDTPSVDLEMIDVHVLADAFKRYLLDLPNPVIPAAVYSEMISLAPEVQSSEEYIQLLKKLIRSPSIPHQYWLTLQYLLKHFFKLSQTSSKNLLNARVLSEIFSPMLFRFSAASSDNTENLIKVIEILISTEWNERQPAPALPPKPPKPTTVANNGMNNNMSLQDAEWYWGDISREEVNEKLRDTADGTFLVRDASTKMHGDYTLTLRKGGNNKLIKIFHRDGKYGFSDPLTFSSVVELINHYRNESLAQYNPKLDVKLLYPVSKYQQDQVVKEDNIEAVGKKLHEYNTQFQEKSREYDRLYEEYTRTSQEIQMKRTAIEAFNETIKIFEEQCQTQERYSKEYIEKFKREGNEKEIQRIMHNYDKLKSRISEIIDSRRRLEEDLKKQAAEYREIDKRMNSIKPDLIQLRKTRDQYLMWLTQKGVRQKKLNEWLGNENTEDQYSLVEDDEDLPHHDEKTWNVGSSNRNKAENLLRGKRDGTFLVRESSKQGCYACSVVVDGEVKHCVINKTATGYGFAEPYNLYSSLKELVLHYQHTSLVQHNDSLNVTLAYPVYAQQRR
T1 sequence (P42338 whole entry): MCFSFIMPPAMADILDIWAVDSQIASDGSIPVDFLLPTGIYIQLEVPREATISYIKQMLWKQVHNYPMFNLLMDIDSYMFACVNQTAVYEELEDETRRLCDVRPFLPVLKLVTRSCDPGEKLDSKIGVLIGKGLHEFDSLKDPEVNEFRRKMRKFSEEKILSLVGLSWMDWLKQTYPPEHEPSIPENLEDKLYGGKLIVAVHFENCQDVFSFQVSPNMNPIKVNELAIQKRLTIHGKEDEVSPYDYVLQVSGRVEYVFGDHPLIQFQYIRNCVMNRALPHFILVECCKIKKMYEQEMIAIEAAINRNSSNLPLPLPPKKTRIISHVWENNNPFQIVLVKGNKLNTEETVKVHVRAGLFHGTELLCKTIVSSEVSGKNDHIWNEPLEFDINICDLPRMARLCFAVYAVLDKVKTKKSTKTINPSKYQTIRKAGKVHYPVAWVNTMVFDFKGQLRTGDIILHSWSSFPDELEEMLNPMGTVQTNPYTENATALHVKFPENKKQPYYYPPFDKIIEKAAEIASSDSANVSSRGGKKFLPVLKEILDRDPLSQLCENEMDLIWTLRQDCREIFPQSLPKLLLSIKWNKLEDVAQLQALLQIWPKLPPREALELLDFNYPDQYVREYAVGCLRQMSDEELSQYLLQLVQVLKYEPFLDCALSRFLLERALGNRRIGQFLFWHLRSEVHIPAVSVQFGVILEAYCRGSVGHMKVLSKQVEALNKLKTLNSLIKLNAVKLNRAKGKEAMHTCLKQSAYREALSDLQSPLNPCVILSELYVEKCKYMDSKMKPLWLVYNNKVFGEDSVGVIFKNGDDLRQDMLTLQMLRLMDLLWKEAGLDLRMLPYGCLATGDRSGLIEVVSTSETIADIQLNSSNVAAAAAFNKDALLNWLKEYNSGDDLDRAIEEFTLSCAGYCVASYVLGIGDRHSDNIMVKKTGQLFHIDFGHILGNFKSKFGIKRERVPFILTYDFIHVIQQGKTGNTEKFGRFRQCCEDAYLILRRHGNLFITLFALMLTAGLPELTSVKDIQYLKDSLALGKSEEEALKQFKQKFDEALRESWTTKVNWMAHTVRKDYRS
T1 sequence (P27986 whole entry partner): as the sequence (P27986 whole entry partner) above

IC50 (PI3Kβ) [nM] | IC50 (PI3Kα) [nM] | SMILES | EC50 (Balb/c splenic B cells) [nM]
1000 to 10000 | – | C[C@H](Nc1nc(N)ncc1C#N)c1cc2cccc(-c3cccc(N(C)C)c3)c2c(=O)n1-c1ccccc1 [Compound 40] | –
1000 to 10000 | – | C[C@H](Nc1nc(N)ncc1C#N)c1cc2cccc(CC#N)c2c(=O)n1-c1ccccc1 [Compound 124] | < 100
1000 to 10000 | – | COc1cccc(-c2cccc3cc([C@H](C)Nc4nc(N)ncc4C#N)n(-c4ccccc4)c(=O)c23)c1 [Compound 36] | –
1000 to 10000 | – | C[C@H](Nc1nc(N)ncc1-c1ccccn1)c1cc2cccc(Cl)c2c(=O)n1-c1ccccc1 [Compound 375] | –
1000 to 10000 | – | COc1cccc(-c2cccc3cc([C@H](C)Nc4nc(N)ncc4C#N)n(-c4ccccc4)c(=O)c23)n1 [Compound 166] | < 100
1000 to 10000 | – | C[C@H](Nc1nc(N)ncc1C#N)c1cc2cccc(O)c2c(=O)n1-c1ccccc1 [Compound 145] | –
1000 to 10000 | – | Cc1ccc(-n2c([C@H](C)Nc3nc(N)ncc3C#N)cc3cccc(Cl)c3c2=O)cc1 [Compound 252] | 100 to 1000
1000 to 10000 | – | COc1cc(-c2cccc3cc([C@H](C)Nc4nc(N)ncc4-c4cnc(C)s4)n(-c4ccccc4)c(=O)c23)ccn1 [Compound 181] | < 100
1000 to 10000 | – | C[C@H](Nc1nc(N)ncc1C#N)c1cc2cccc(-c3ccc(=O)n(C4CCOCC4)c3)c2c(=O)n1-c1ccccc1 [Compound 235] | –
1000 to 10000 | – | C[C@H](Nc1nc(N)ncc1-c1ccncc1)c1cc2cccc(Cl)c2c(=O)n1-c1ccccc1 [Compound 168] | –
1000 to 10000 | – | C[C@H](Nc1nc(N)ncc1C#N)c1cc2cccc(Cl)c2c(=O)n1-c1cccc(F)c1F [Compound 282] | –
1000 to 10000 | – | C[C@H](Nc1nc(N)ncc1C#N)c1cc2cccc(Cl)c2c(=O)n1Cc1ccccc1 [Compound 303] | –
– | 1000 to 10000 | COc1cc(-c2cccc3cc([C@H](C)Nc4nc(N)ncc4-c4ccncc4)n(-c4ccccc4)c(=O)c23)ccn1 [Compound 169] | < 100
1000 to 10000 | – | Cc1cccc(-c2cccc3cc([C@H](C)Nc4nc(N)ncc4C#N)n(-c4ccccc4)c(=O)c23)c1 [Compound 46] | –
– | 1000 to 10000 | C[C@H](Nc1nc(N)ncc1C#N)c1cc2cccc(Cl)c2c(=O)n1-c1cscn1 [Compound 249] | < 100
1000 to 10000 | – | C[C@H](Nc1nc(N)ncc1C#N)c1cc2cccc(-c3ccc(F)cc3)c2c(=O)n1-c1ccccc1 [Compound 37] | –
1000 to 10000 | – | C[C@H](Nc1nc(N)ncc1-c1ccc(O)cc1)c1cc2cccc(Cl)c2c(=O)n1-c1ccccc1 [Compound 436] | –
– | 1000 to 10000 | COc1ccc(-c2cccc3cc([C@H](C)Nc4nc(N)ncc4C#N)n(-c4ccccc4)c(=O)c23)nc1 [Compound 206] | < 100
– | 1000 to 10000 | C#Cc1cnc(N)nc1N[C@@H](C)c1cc2cccc(Cl)c2c(=O)n1-c1ccccc1 [Compound 91] | < 100
– | 1000 to 10000 | CCOc1ncc(-c2cnc(N)nc2N[C@@H](C)c2cc3cccc(Cl)c3c(=O)n2-c2ccccc2)s1 [Compound 371] | < 100
1000 to 10000 | – | CC(C)Oc1cncc(-c2cccc3cc([C@H](C)Nc4nc(N)ncc4C#N)n(-c4ccccc4)c(=O)c23)c1 [Compound 53] | –
1000 to 10000 | – | C[C@H](Nc1nc(N)ncc1C#N)c1cc2cccc(Cl)c2c(=O)n1-c1ccc2c(c1)OCO2 [Compound 261] | –
– | 1000 to 10000 | CC(C)n1c([C@H](C)Nc2nc(N)ncc2C#N)cc2cccc(Cl)c2c1=O [Compound 325] | < 100

IC50 (PI3Kβ) [nM] | IC50 (PI3Kα) [nM] | SMILES | EC50 (Balb/c splenic B cells) [nM]
1000 to 10000 | – | C[C@H](Nc1nc(N)ncc1-c1cnn(C)c1)c1cc2cccc(Cl)c2c(=O)n1-c1ccccc1 [Compound 376] | –
1000 to 10000 | – | C[C@H](Nc1nc(N)ncc1-c1ccsc1)c1cc2cccc(Cl)c2c(=O)n1-c1ccccc1 [Compound 373] | –
– | 1000 to 10000 | C[C@H](Nc1nc(N)ncc1C#N)c1cc2cccc(-c3cccc(S(C)(=O)=O)c3)c2c(=O)n1-c1ccccc1 [Compound 164] | < 100
– | 1000 to 10000 | C[C@H](Nc1nc(N)ncc1-c1ncco1)c1cc2cccc(Cl)c2c(=O)n1-c1ccccc1 [Compound 365] | < 100
– | 1000 to 10000 | COc1ccc(-c2cccc3cc([C@H](C)Nc4nc(N)ncc4C#N)n(C4CC4)c(=O)c23)cn1 [Compound 108] | < 100
– | 1000 to 10000 | C[C@H](Nc1nc(N)ncc1C#N)c1cc2cccc(Cl)c2c(=O)n1-c1ccon1 [Compound 332] | < 100
– | 1000 to 10000 | C#Cc1cccc2cc([C@H](C)Nc3nc(N)ncc3C#N)n(-c3ccccc3)c(=O)c12 [Compound 72] | < 100
1000 to 10000 | – | Cc1cnc(-c2cnc(N)nc2N[C@@H](C)c2cc3cccc(Cl)c3c(=O)n2-c2ccccc2)s1 [Compound 368] | –
– | 1000 to 10000 | Cc1ncc(-c2cccc3cc([C@H](C)Nc4nc(N)ncc4C#N)n(-c4cccc(F)c4)c(=O)c23)cn1 [Compound 20] | < 100
– | 1000 to 10000 | CCOc1nc(-c2cnc(N)nc2N[C@@H](C)c2cc3cccc(Cl)c3c(=O)n2-c2ccccc2)cs1 [Compound 369] | < 100
– | 1000 to 10000 | C[C@H](Nc1nc(N)ncc1C#N)c1cc2cccc(-c3ccnnc3)c2c(=O)n1-c1ccccc1 [Compound 57] | < 100
1000 to 10000 | – | C[C@H](Nc1nc(N)ncc1C#N)c1cc2cccc(Cl)c2c(=O)n1-c1c(F)cc(F)cc1F [Compound 258] | –
1000 to 10000 | – | Cc1nc(-c2cnc(N)nc2N[C@@H](C)c2cc3cccc(Cl)c3c(=O)n2-c2ccccc2)sc1C [Compound 366] | –
1000 to 10000 | – | C[C@H](Nc1nc(N)ncc1C#N)c1cc2cccc(-c3cccc(Cl)c3)c2c(=O)n1-c1ccccc1 [Compound 34] | –
– | 1000 to 10000 | Cc1ncc(-c2cccc3cc([C@H](C)Nc4nc(N)ncc4C#N)n(-c4ccccc4)c(=O)c23)cn1 [Compound 55] | < 100
– | 1000 to 10000 | C[C@H](Nc1nc(N)ncc1C#N)c1cc2cccc(Cl)c2c(=O)n1-c1ccccc1 [Compound 8, (S)-2-amino-4-((1-(8-chloro-1-oxo-2-phenyl-1,2-dihydroisoquinolin-3-yl)ethyl)amino)pyrimidine-5-carbonitrile] | < 100
– | 1000 to 10000 | Cc1ccc(-c2cccc3cc([C@H](C)Nc4nc(N)ncc4C#N)n(-c4ccccc4)c(=O)c23)cn1 [Compound 41] | < 100
1000 to 10000 | – | COc1ccc(-n2c([C@H](C)Nc3nc(N)ncc3C#N)cc3cccc(Cl)c3c2=O)cc1 [Compound 214] | –
– | 1000 to 10000 | CC#Cc1cccc2cc([C@H](C)Nc3nc(N)ncc3C#N)n(-c3ccccc3)c(=O)c12 [Compound 222] | < 100
– | 1000 to 10000 | Cc1cc(-c2cccc3cc([C@H](C)Nc4nc(N)ncc4C#N)n(-c4ccccc4)c(=O)c23)cn(C)c1=O [Compound 231] | < 100
1000 to 10000 | – | C[C@H](Nc1nc(N)ncc1C#N)c1cc2cccc(Cl)c2c(=O)n1-c1ccc(OC(F)(F)F)cc1 [Compound 210] | –
– | 1000 to 10000 | C[C@H](Nc1nc(N)ncc1C#N)c1cc2cccc(-c3ccc(O)nc3)c2c(=O)n1-c1ccccc1 [Compound 156] | < 100
– | 1000 to 10000 | C[C@H](Nc1nc(N)ncc1C(=O)N(C)C)c1cc2cccc(Cl)c2c(=O)n1-c1ccccc1 [Compound 199] | < 100

SMILES | IC50 (PI3Kβ) [nM] | IC50 (PI3Kα) [nM] | EC50 (Balb/c splenic B cells) [nM]
C[C@H](Nc1nc(N)ncc1C#N)c1nc2cccc(Cl)c2c(=O)n1-c1ccccc1 [Compound 59, (S)-2-amino-4-((1-(5-chloro-4-oxo-3-phenyl-3,4-dihydroquinazolin-2-yl)ethyl)amino)pyrimidine-5-carbonitrile] | – | 1000 to 10000 | < 100
